Entries after “also recorded” stand apart in the source; their conditions may differ.
Columns and labels:
B. thailandensis JBT112 = format: cell-based, Burkholderia thailandensis
BtaR2 [1] = format: cell-based, B. thailandensis; conditions: 3 h
S. aureus COL (MRSA) = assay: CLSI microtiter MIC assay; format: cell-based, Staphylococcus aureus; conditions: for Minimum Inhibitory Concentration (MIC): S. aureus COL (MRSA), 24 hours at 35° C., average from two independent experiments
Experimental: (§1) To test the potency of bactobolins, antibiotic assays were carried out against the human pathogens MRSA, VRE and V. parahaemo-lyticus, and against B. subtilis and E. coli (Table 3-C).
(§2) The minimum inhibitory concentrations (MIC) of each bactobolin was determined according to the 2003 guidelines of the Clinical and Laboratory Standards Institute (CLSI, formerly NCCLS) using the microtiter MIC method. Inocula for each test organism were prepared by suspending a colony from an LB agar plate into Tryptic Soy Broth and growing for 3-5 hours at 35° C. with shaking, then adjusting the culture turbidity in PBS to the equivalent of a 1.0 McFarland Standard (3×10^8 CFU/ml). These cell suspensions were used as inocula for microtiter MIC assays. 2.5 μL inoculum, which corresponded to 1×10^6 cells, was added to a 200 μL well containing each bactobolin diluted in cation-adjusted Mueller-Hinton II broth (actual CFU/ml ranged from 5×104 to 1×106), and these were incubated without shaking for 24 hours at 35° C. The MIC was defined as the lowest concentration of bactobolin (μg/ml) in which bacterial growth in the well was not measurable by determining the turbidity at 595 nm (A595) on a 96-well plate reader. See Table S8 for strains used in these assays.

E. coli ATCC25922 = assay: CLSI microtiter MIC assay; format: cell-based, Escherichia coli; conditions: 24 hours at 35° C., average from two independent experiments
Experimental: as §1, §2

E. faecalis V583 (VRE) = assay: CLSI microtiter MIC assay; format: cell-based, Enterococcus faecalis; conditions: 24 hours at 35° C., average from two independent experiments
Experimental: as §1, §2

[2] = test system: V. parahaemolyticus LM5674; assay: CLSI microtiter MIC assay; format: cell-based, Vibrio parahaemolyticus
Experimental: as §1, §2

B. subtilis 3610 = assay: CLSI microtiter MIC assay; format: cell-based, Bacillus subtilis; conditions: 24 hours at 35° C., average from two independent experiments
Experimental: as §1, §2

BtaR2 [3] = format: cell-based, B. thailandensis
B. subtilis = format: cell-based, Bacillus subtilis; conditions: disc soaked in sterile medium containing 2 μM 3OHC10-HSL; B. subtilis lawn
[4] = test system: MRSA, VRE and V. parahaemo-lyticus, B. subtilis and E. coli; assay: Antibiotic assays of bactobolins, overall comparison; format: cell-based; conditions: comparison over Table 3-C strains
Experimental: as §1, §2

[5] = test system: B. thailandensis ΔbtaI1, I2, I3 (JBT112); format: cell-based, Burkholderia thailandensis
[6] = test system: B. thailandensis E264 (wt); format: cell-based, Burkholderia thailandensis
[7] = test system: B. thailandensis ΔbtaT (BD44); format: cell-based, Burkholderia thailandensis
E. coli = conditions: relative to bactobolin; cited from earlier work
translation = conditions: relative to bactobolin; cited from earlier work
tumor = conditions: relative to bactobolin; cited from earlier work

Compound | Restoration of antibiotic production in JBT112 (B. thailandensis JBT112) | Activation of btaI2-lacZ transcription (BtaR2 [1]) | Minimum Inhibitory Concentration (MIC) (S. aureus COL (MRSA)) | Minimum Inhibitory Concentration (MIC) (E. coli ATCC25922) | Minimum Inhibitory Concentration (MIC) (E. faecalis V583 (VRE)) | Minimum Inhibitory Concentration (MIC) (B. subtilis 3610) | Relative potency among bactobolins [4] | further results
CCCCCCCC(=O)N[C@H]1CCOC1=O [Bactobolin C8-HSL] | unable to restore antibiotic production | no detectable response | – | – | – | – | – | –
C[C@@H](N)C(=O)N[C@@H]1[C@@H]2C[C@H](O)CC(O)=C2C(=O)O[C@]1(C)C(Cl)Cl [Bactobolin C] | – | – | 6.25 µg/mL | 25 µg/mL | >25 µg/mL | 12.5 µg/mL | – | Antibiotic effectiveness in words (S. aureus COL (MRSA); MRSA): effective against these strains, though to a lesser extent; Antibiotic effectiveness in words ([2]; V. parahaemolyticus): effective against these strains, though to a lesser extent; Minimum Inhibitory Concentration (MIC) ([2]; V. parahaemolyticus LM5674, 24 hours at 35° C., average from two independent experiments): 1.56 µg/mL
CCCCCCCC(O)CC(=O)N[C@H]1CCOC1=O (stereo partly shown) [Bactobolin 3OHC10-HSL] | requires exogenous 3OHC8-HSL or 3OHC10-HSL for antibiotic production | Activation | – | – | – | – | – | BtaR2-dependent induction of lacZ (1233 promoter) (BtaR2 [3]): sufficient for BtaR2-dependent induction of lacZ; antibiotic activity of acyl-HSL alone, diffusion disc (B. subtilis): not an antimicrobial molecule; also recorded: does not have antibiotic activity
Bactobolin B | – | – | – | 1.56 µg/mL | 25 µg/mL | 0.39 µg/mL | more potent than bactobolins C and D | Bactobolin B MIC [5]: >25 µg/mL; Bactobolin B MIC [6]: >25 µg/mL; Bactobolin B MIC [7]: >25 µg/mL
C[C@H](N)C(=O)N[C@@H](C)C(=O)N[C@@H]1[C@@H]2C[C@H](O)CC(O)=C2C(=O)O[C@]1(C)C(Cl)Cl [Bactobolin D] | – | – | 37.5 µg/mL | >100 µg/mL | – | 100 µg/mL | weakest analog | –
CCCCCCCCCCCC(=O)N[C@H]1CCOC1=O [Bactobolin C12-HSL, N-dodecanoyl-HSL] | – | response | – | – | – | – | – | –
CCCCCC(O)CC(=O)N[C@H]1CCOC1=O (stereo partly shown) [Bactobolin 3OHC8-HSL] | requires exogenous 3OHC8-HSL or 3OHC10-HSL for antibiotic production | Activation | – | – | – | – | – | BtaR2-dependent induction of lacZ (1233 promoter) (BtaR2 [3]): sufficient for BtaR2-dependent induction of lacZ
Bactobolin A | – | – | 0.78 µg/mL | 6.25 µg/mL | >25 µg/mL | 1.56 µg/mL | more potent than bactobolins C and D | –
CCCCCCCCCC(=O)N[C@H]1CCOC1=O [Bactobolin C10-HSL, N-decanoyl-HSL] | – | response | – | – | – | – | – | –
C[C@H](N)C(=O)N[C@@H]1[C@H]2C(=C(O)C[C@@H](O)[C@@H]2O)C(=O)O[C@@H]1C [actinobolin] | – | – | – | – | – | – | – | less active than bactobolin, E. coli kill-assays (E. coli): 21 fold; less active than bactobolin, in vitro inhibition of translation (translation): 1000 fold; less active than bactobolin, murine antitumor activity (tumor): 900 fold
